# Assay results as given in ChEMBL document CHEMBL5113410, “Novel flavonoid hybrids as potent antiviral agents against hepatitis A: Design, synthesis and biological evaluation” (Eur J Med Chem, 2022).
# The source made the active and inactive calls. The calls are words filed in the database; no cut-off is given here.
# Experiments:
# [1] = Cytotoxicity in human Huh-7.5.1 cells assessed as reduction in cell viability incubated for 72 hrs by CellTiter-Glo luminescent cell viability assay; type: toxicity, cell-based, Huh7.5.1
# [2] = test system: Hepatovirus A; test: Antiviral activity against hepatitis A virus genotype 1b infected in human Huh-7.5.1 cells assessed as reduction in virus production incubated for 72 hrs by Nano-Glo luciferase assay; type: functional, organism-based; details: for Activity: DDE = dose-dependent effect; for EC50: Huh-7.5.1, 72 h
# [3] = Selectivity index, ratio of CC50 for Cytotoxicity in human Huh-7.5.1 cells to EC50 for Antiviral activity against hepatitis A virus genotype 1b infected in human Huh-7.5.1 cells; type: toxicity, cell-based; details: read-out: Ratio CC50/EC50
# [4] = test system: Hepatovirus A; test: Antiviral activity against hepatitis A virus genotype 1b infected in human Huh-7.5.1 cells assessed as reduction in virus production at 10 uM incubated for 72 hrs after 6 hrs HAV/NLuc infection by Nano-Glo luciferase assay; type: functional, organism-based
# [5] = test system: Hepatovirus A; test: Antiviral activity against hepatitis A virus HM175 infected in human Huh-7.5.1 cells assessed as reduction in HAV2c Protein expression at 10 uM incubated for 48 hrs by immunofluorescence assay; type: functional, organism-based
# [6] = test system: Hepatovirus A; test: Antiviral activity against hepatitis A virus TICM005 infected in human Huh-7.5.1 cells assessed as reduction in cytoplasmic viral RNA level at 5 to 20 uM incubated for 72 hrs dosed after infection for 6 hrs by RT-qPCR method; type: functional, organism-based; details: TICM005, Huh-7.5.1
# [7] = test system: Hepatovirus A; test: Antiviral activity against hepatitis A virus genotype 1b infected in human Huh-7.5.1 cells assessed as reduction in virus production at 10 uM incubated for 72 hrs by Nano-Glo luciferase assay; type: functional, organism-based
# [8] = test system: Hepatovirus A; test: Antiviral activity against hepatitis A virus KRM031 infected in human Huh-7.5.1 cells assessed as reduction in cytoplasmic viral RNA level at 5 to 20 uM incubated for 72 hrs dosed after infection for 6 hrs by RT-qPCR method; type: functional, organism-based; details: KRM031, Huh-7.5.1
# [9] = test system: Huh7.5.1; test: Cytotoxicity in human Huh-7.5.1 cells assessed as reduction in cell viability at 10 uM incubated for 72 hrs by CellTiter-Glo luminescent cell viability assay; type: toxicity, cell-based; details: huh7.5.1, 72 h
# [10] = test system: Hepatovirus A; test: Antiviral activity against hepatitis A virus infected in human Huh-7.5.1 cells assessed as reduction in viral RNA replication at 2 to 50 uM incubated for 72 hrs by luciferase reporter dependent subgenomic replicon assay; type: functional; details: dose 2-50 µM
# [11] = test system: Hepatovirus A; test: Antiviral activity against hepatitis A virus HM175/18f infected in human Huh-7.5.1 cells assessed as reduction in HM175 production at 2 to 50 uM incubated for 72 hrs by RT-qPCR method; type: functional, organism-based; details: dose 2-50 µM, DDE = dose-dependent effect
SMILES,CC50 at 72 h [1] [µM],Activity [2],EC50 [2] [µM],selectivity ratio [3],inhibition [4],Activity [5],EC50 [6] [µM],Activity [7],EC50 [8] [µM],Activity [9],inhibition (INH) [10] [%],inhibition [11]
COc1cc(OCC(=O)N/N=C/c2ccc(Cl)cc2)cc2c1CCC(c1cc(OC)c(OC)c(OC)c1)O2 (stereo unspecified),89.8,Dde,5.5,16.3,Active,Active,14.2,Active,13.1,Non-Toxic,98.3,Dde
COc1cc(OCC(=O)N/N=C/c2ccc(Br)cc2)cc2c1CCC(c1cc(OC)c(OC)c(OC)c1)O2 (stereo unspecified),152,Dde,6.1,25,Active,Active,> 20,Active,> 20,Non-Toxic,93,Dde
COc1cc(OCC(=O)N/N=C/c2ccc(C)cc2)cc2c1CCC(c1cc(OC)c(OC)c(OC)c1)O2 (stereo unspecified),103,Dde,9.3,11.1,Active,Active,> 20,Active,> 20,Non-Toxic,56.4,Dde
COc1cc(OCC(=O)N/N=C(\C)c2ccccc2O)cc2c1CCC(c1cc(OC)c(OC)c(OC)c1)O2 (stereo unspecified),,,,,,,,Active,,Toxic,,
COc1cc(OCC(=O)N/N=C/c2ccc(Cl)c(Cl)c2)cc2c1CCC(c1cc(OC)c(OC)c(OC)c1)O2 (stereo unspecified),,,,,,,,Active,,Toxic,,
COc1cc(OCC(=O)N/N=C/c2ccc(Cl)s2)cc2c1CCC(c1cc(OC)c(OC)c(OC)c1)O2 (stereo unspecified),83.3,Dde,5.3,15.7,Active,Active,11.7,Active,8.5,Non-Toxic,98.1,Dde
COc1ccc(/C=N/NC(=O)COc2cc(OC)c3c(c2)OC(c2cc(OC)c(OC)c(OC)c2)CC3)cc1 (stereo unspecified),,,,,,,,Active,,Toxic,,
COc1cc(OCC(=O)N/N=C/c2ccc(Cl)c(O)c2)cc2c1CCC(c1cc(OC)c(OC)c(OC)c1)O2 (stereo unspecified),,,,,,,,Active,,Toxic,,
